Here are results for three substances from patent publication US5457092A, “Methods of promoting bone growth in mammals comprising administration of modified parathyroid hormone” (Gesellschaft fur Biotechnologische Forschung mbH (GBF), priority 1987, dated 1995).

Experiment [1] relates to rat epiphysial cartilage cell cultures. As to the kind of experiment: DNA synthesis in rat epiphysial cartilage cell cultures. In kind it is cell-based. As to conditions: for [^3 H]Thymidine incorporation into DNA: 100 nM, control 350 ± 25. Background: Incorporation of labelled thymidine or its analogues reports DNA synthesis.
The test system is the same in experiment [2]. Briefly: CK specific activity in rat epiphysial cartilage cell cultures. As to conditions: for CK specific activity: 100 nM, control 225 ± 32. The experiment is classed as cell-based. How it is done: To compare the stimulations seen in osteoblast-like cells (FIGS. 10 and 11) with PTH effects in a cartilage system, cultures of rat epiphysial cartilage cells were incubated with full-length PTH and selected PTH fragments (Table 3). CK activity was stimulated by bPTH(1-84) and hPTH(28-48) but not by hPTH(25-39) or hPTH(34-47). […] The comparison between the complete molecule and the mid-regional fragment hPTH (28-48) is similar to but not identical with the results obtained for calvaria cell cultures (FIGS. 10 and 11) and in the chick sternum chondrocyte system; cf. Biochem. J., 252 (1988) 263-268 (11; Farndale et al.),

Experiment [3] concerns osteoblast enriched rat embryo calvaria cell cultures. Briefly: CK specific activity in rat embryo calvaria cell cultures. The experiment is classed as cell-based. As to conditions: for CK specific activity, effect of fragment (experimental value/control value): 100 nM, 24 h, control 457 ± 46 nmol/min per mg of protein; for increase of CK activity (in words): treated for 24 h. Summed up: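 Osteoblast-enriched rat embryo calvaria cultures stimulated with PTH fragments from the central portion of the molecule. Cyclic AMP measured 15 min after stimulation; CK specific activity measured 24 h after stimulation. Values are means ±S.E.M., N≥5, compared with controls by Student's T test.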

The test system of experiment [4] is rat organs (epiphysis, diaphysis, kidney). Briefly: CK specific activity in rat organs after i.p. injection. The experiment is classed as in vivo. As to conditions: for effect on CK activity in rat organs (in words): 0.875 μg/rat; for CK specific activity, Kidney / CK specific activity, Epiphysis / CK specific activity, Diaphysis: rat; for CK specific activity, Kidney: control 1.43 ± 0.20; for CK specific activity, Epiphysis: control 15.0 ± 2.2; for CK specific activity, Diaphysis: control 26.0 ± 3.,9. As to the method: FIG. 13 is a graph showing the time-dependent stimulation by hPTH (28-48) of CK specific activity in rat organs. Female rats (20-25 days old) were injected i.p. with hPTH-(28-48) (1.25 μg/rat). Experimental details are as described for FIG. 10. (a) Diaphysis, (b) epiphysis, (c) kidney. *P<0.05, **P<0.01 versus controls.
FIG. 14 is a graph showing the dose-dependent stimulation of CK specific activity by hPTH (1-34) in rat organs. Female rats (20-25 days old) were injected i.p. with hPTH-(1-34). At 4 h later, rats were killed and extracts were prepared and assayed as described below. Experimental details are as described for FIG. 10 (a) Diaphysis, (b) epiphysis, (c) kidney. *P<0.05, ** P<0.01 versus controls.
FIG. 15 is a graph showing the dose-dependent stimulation of CK specific activity by hPTH (28-48) in rat organs. Female rats (20-25 days old) were injected i.p. with hPTH-(28-48). Experimental details are as described for FIG. 13 (a) Diaphysis, (b) epiphysis, (c) kidney. *P<0.05, **P<0.01 versus controls.
FIG. 16 is a graph showing the […] stimulation by bPTH (1-84) of CK specific activity in rat organs. Female rats (20-25 days old) were injected i.p. with bPTH-(1-84) (3.5 μg/rat). At the times indicated, the rats were killed and the diaphyses (a) and epiphyses (b) of long bones as well as the kidneys (c) were collected and homogenized. Extracts were prepared and assayed as described below. Results are means ±S.E.M for π=5. Statistical significance of differences between treated and control groups by Student's T test: *P<0.05; **P<0.01. Note that the activity scales differ for different organs.
Kidneys, tibia and femur were excised; the epiphyses or diaphyses of the long bones were collected and washed thoroughly with cold 0.9% NaCl. The bones were split open lengthwise and the marrow was scraped out. Organs were homogenized in ice-cold buffer containing 50 mM-Tris/HCl (pH 6.8), 5 mH-magnesium acetate. 2.5 mM-dithiothreitol, 0.4 mM-EDTA and 250 mM-sucrose using a Polytron homogenizer in 10 s bursts with intervening cooling periods. Supernatant extracts were obtained by centrifugation at 12000 g for 5 min at 4° C. CK activity was measured at 30° C. in a Gilford 250 automatic recording spectrophotometer at 340 nm using a coupled assay for ATP, in 0.5 ml of incubation mixture containing 50 mM-imidazole acetate buffer (pH 6.7), 25 mM-phosphocreatine, 20 mM-N-acetylcysteine, 20 mM-D-glucose, 10 mM-magnesium acetate, 5 mM-EDTA, 2 mM-ADP, 2 mM-NAD+, 2 mM-dithiothreitol, 50 μM-diadenosine pentaphosphate (adenylate kinase inhibitor), 5 μg of bovine serum albumin. 1.2 units of glucose-6-phosphate dehydrogenase and 0.8 units of hexokinase. Protein was determined by the Coomassie Brilliant Blue dye-binding method, with bovine serum albumin as the standard.

Experiment [5] deals with ROS 17/2.8 osteoblast-like cells. As to the kind of experiment: CK specific activity in ROS 17/2.8 osteoblast-like cells. In kind it is cell-based, rat. As to conditions: control 698 ± 70 nmol/min per mg of protein.
For experiment [6] the test system is unchanged. Briefly: Cyclic AMP production in ROS 17/2.8 osteoblast-like cells. The experiment is classed as cell-based, rat. As to conditions: for Cyclic AMP, effect of fragment (experimental value/control value): control 29 ± 5.2 pmol/mg of protein. As to the method: When cultures of the widely used model for osteoblasts, the osteoblast-likeclone of rat osteosarcoma, ROS 17/2.8 (Endocrinology (Baltimore), 107 (1980) 1494-1503=12; Majeska et al.), were incubated with full-length PTH and PTH fragments (Table 4), cyclic AMP production was stimulated only by bPTH(1-84) and hPTH(1-34), whereas hPTH(25-39), hPTH(27-48), hPTH(28-48) and hPTH(34-47) were ineffective.

In experiment [7] the test system is rat organs (epiphysis, diaphysis, kidney). As to the kind of experiment: [3H]thymidine incorporation into DNA in rat organs after i.p. injection. The experiment is classed as in vivo. As to conditions: rat; for [^3 H]thymidine incorporation into DNA, Kidney: control 9.0 ± 2.1; for [^3 H]thymidine incorporation into DNA, Diaphysis: control 24.1 ± 3.8; for [^3 H]thymidine incorporation into DNA, Epiphysis: control 25.8 ± 5.2.

Setting [8] is: 4 h after injection of 0.875 μg.
The mark [9] stands for this setting: 22-24 h after injection of 0.876 μg.
Setting [10] is: 22-24 h after injection of 1.25 μg.
Where [11] appears, read: 22-24 h after injection of 0.875 μg.

As to “hPTH(25-39): PTH fragment 25-39, human source (RKKLQDVHNFVALGA; Parathyroid hormone; UniProt P01270 56-70, looked up, fragment)”, the “[^3 H]Thymidine incorporation into DNA” value in experiment [1] is reported as 544 ± 44 c.p.m./plate. In experiment [2], the CK specific activity is 268 ± 36 nmol/min per mg of protein. Further, the “CK specific activity, effect of fragment (experimental value/control value)” value in experiment [3] was determined as 2.15 ± 0.24. For the same substance, the “effect on CK activity in rat organs (in words)” value in experiment [4] (equivalent to 14 nM) is given as “significant increase”. Moreover, in experiment [4] (setting [8]), the “CK specific activity, Kidney” value was 3.22 ± 0.78 μmol/min per mg of protein; the “CK specific activity, Epiphysis” value is 24.0 ± 3.2 μmol/min per mg of protein; the “CK specific activity, Diaphysis” value is recorded as 41.8 ± 4.9 μmol/min per mg of protein. Besides, the “CK specific activity, effect of fragment (experimental value/control value)” value in experiment [5] (200 nM) is on record as 1.71 ± 0.08. Besides, in experiment [6], the “stimulation of cyclic AMP production (in words)” value was “ineffective”. Besides, the “Cyclic AMP, effect of fragment (experimental value/control value)” value in experiment [6] (200 nM) was determined as 1.05 ± 0.15. Moreover, in experiment [7] (setting [9]), the “[^3 H]thymidine incorporation into DNA, Kidney” value is listed as 11.2 ± 1.9 c.p.m./pg of DNA; the “[^3 H]thymidine incorporation into DNA, Diaphysis” value was 44.8 ± 4.5 c.p.m./pg of DNA; the “[^3 H]thymidine incorporation into DNA, Epiphysis” value is recorded as 48.4 ± 6.6 c.p.m./pg of DNA.
Turning to “hPTH(28-48): mid-regional PTH fragment 28-48, human source (LQDVHNFVALGAPLAPRDAGS; Parathyroid hormone; UniProt P01270 59-79, looked up, fragment)”, the “[^3 H]Thymidine incorporation into DNA” value in experiment [1] came out at 731 ± 44 c.p.m./plate. Besides, in experiment [2], the “stimulation of CK activity (in words)” value is recorded as “stimulated” and the CK specific activity was 346 ± 36 nmol/min per mg of protein. In experiment [3], the “CK specific activity, effect of fragment (experimental value/control value)” value stood at 2.15 ± 0.15 and the “increase of CK activity (in words)” value is given as “maximally active”. In experiment [4] (1.25 μg/rat i.p.), the “time of maximal increase of CK activity, diaphysis” value was 1 h and the “time of maximal increase of CK activity, epiphysis” value is 4 h. The “effect on CK activity after injection (in words)” value in experiment [4] (1.25 μg/rat i.p., equivalent to 14 nM) is recorded as “increased CK activity”. Besides, the “CK activity in diaphysis over time (in words)” value in experiment [4] (1.25 μg/rat i.p., 1, 4 and 24 h) is “significantly increased at all three times measured”. In addition, the “CK activity in epiphysis at 1 h (in words)” value in experiment [4] (1.25 μg/rat i.p., 1 h) is on record as “significant increase”. Further, in experiment [4] (1.25 μg/rat i.p., 24 h), the “CK activity in epiphysis at 24 h (in words)” value is given as “no significant increase” and the “CK specific activity in kidney at 24 h (in words)” value is on record as “declined to close to the constitutive activity”. Further, the “stimulation of CK specific activity in diaphysis at the dose of maximum effect” value in experiment [4] (1.25 μg/rat, 4 h later) is given as “approx. 3 fold”. For the same substance, the “dose of maximal effect on CK specific activity” value in experiment [4] (i.p., 4 h later) amounted to 1.25 μg/rat. Also, the “dose giving a significant increase in CK specific activity in all organs” value in experiment [4] (i.p., 4 h later, diaphysis, epiphysis, kidney) came to 0.15 μg/rat. For the same substance, in experiment [4] (4 h after injection of 1.25 μg), the “CK specific activity, Kidney” value is 2.26 ± 0.34 μmol/min per mg of protein; the “CK specific activity, Epiphysis” value is 20.9 ± 3.0 μmol/min per mg of protein; the “CK specific activity, Diaphysis” value is recorded as 37.2 ± 3.3 μmol/min per mg of protein. The “CK specific activity, effect of fragment (experimental value/control value)” value in experiment [5] (400 nM) is reported as 1.56 ± 0.08. Moreover, in experiment [6], the “stimulation of cyclic AMP production (in words)” value is reported as “ineffective”. The “Cyclic AMP, effect of fragment (experimental value/control value)” value in experiment [6] (400 nM) amounted to 1.18 ± 0.28. In addition, in experiment [7] (setting [10]), the “[^3 H]thymidine incorporation into DNA, Kidney” value is given as 11.2 ± 2.7 c.p.m./pg of DNA; the “[^3 H]thymidine incorporation into DNA, Diaphysis” value is 39.1 ± 8.1 c.p.m./pg of DNA; the “[^3 H]thymidine incorporation into DNA, Epiphysis” value was 46.7 ± 7.4 c.p.m./pg of DNA.
“hPTH(34-47): PTH fragment 34-47, human source; comparative example (FVALGAPLAPRDAG; Parathyroid hormone; UniProt P01270 65-78, looked up, fragment) [reference compound]”: in experiment [1], the “stimulation of DNA synthesis (in words)” value is “stimulated by all molecules tested except” and the “[^3 H]Thymidine incorporation into DNA” value turned out to be 356 ± 75 c.p.m./plate. Further, the CK specific activity in experiment [2] is given as 236 ± 32 nmol/min per mg of protein. For the same substance, the “increase of CK activity (in words)” value in experiment [3] was “inactive”. Also, the “effect on CK activity in rat organs (in words)” value in experiment [4] (equivalent to 14 nM) was “no effect”. In experiment [4] (setting [8]), the “CK specific activity, Kidney” value is given as 1.64 ± 0.32 μmol/min per mg of protein; the “CK specific activity, Epiphysis” value is 16.7 ± 2.5 μmol/min per mg of protein; the “CK specific activity, Diaphysis” value was 24.9 ± 4.8 μmol/min per mg of protein. For the same substance, the “CK specific activity, effect of fragment (experimental value/control value)” value in experiment [5] (500 nM) is 1.07 ± 0.10. For the same substance, the “stimulation of cyclic AMP production (in words)” value in experiment [6] is on record as “ineffective”. For the same substance, in experiment [6] (500 nM), the “Cyclic AMP, effect of fragment (experimental value/control value)” value is reported as 0.88 ± 0.31. For the same substance, in experiment [7] (setting [11]), the “[^3 H]thymidine incorporation into DNA, Kidney” value is given as 9.0 ± 1.9 c.p.m./pg of DNA; the “[^3 H]thymidine incorporation into DNA, Diaphysis” value is on record as 28.6 ± 4.2 c.p.m./pg of DNA; the “[^3 H]thymidine incorporation into DNA, Epiphysis” value is on record as 28.0 ± 7.2 c.p.m./pg of DNA.
